Laboratory results published in the NIST ThermoML archive (doi:10.1016/j.fluid.2006.01.027).
Numbers after ± are expanded uncertainties.

Details: Liquid, Pulse-echo method

SMILES: C=CCCCCCCCCCCCCCC [1-hexadecene]
- speed of sound (303.15 K, 100 kPa): 1314.4 ± 2.9 m/s
- speed of sound (303.15 K, 2500 kPa): 1327.9 ± 3 m/s
- speed of sound (303.15 K, 5000 kPa): 1341.7 ± 3 m/s
- speed of sound (303.15 K, 10000 kPa): 1368.2 ± 3 m/s
- speed of sound (303.15 K, 15000 kPa): 1393.7 ± 3.1 m/s
- speed of sound (303.15 K, 20000 kPa): 1418.2 ± 3.1 m/s
- speed of sound (303.15 K, 30000 kPa): 1464.6 ± 3.2 m/s
- speed of sound (303.15 K, 40000 kPa): 1508 ± 3.3 m/s
- speed of sound (303.15 K, 60000 kPa): 1587.7 ± 3.4 m/s
- speed of sound (303.15 K, 80000 kPa): 1659.7 ± 3.6 m/s
- speed of sound (303.15 K, 100000 kPa): 1725.7 ± 3.7 m/s
- speed of sound (313.15 K, 100 kPa): 1278.1 ± 2.9 m/s
- speed of sound (313.15 K, 2500 kPa): 1292.1 ± 2.9 m/s
- speed of sound (313.15 K, 5000 kPa): 1306.4 ± 2.9 m/s
- speed of sound (313.15 K, 10000 kPa): 1333.9 ± 3 m/s
- speed of sound (313.15 K, 15000 kPa): 1360.2 ± 3 m/s
- speed of sound (313.15 K, 20000 kPa): 1385.5 ± 3.1 m/s
- speed of sound (313.15 K, 30000 kPa): 1433.2 ± 3.1 m/s
- speed of sound (313.15 K, 40000 kPa): 1477.8 ± 3.2 m/s
- speed of sound (313.15 K, 60000 kPa): 1559.3 ± 3.4 m/s
- speed of sound (313.15 K, 80000 kPa): 1632.8 ± 3.5 m/s
- speed of sound (313.15 K, 100000 kPa): 1700 ± 3.6 m/s
- speed of sound (323.15 K, 100 kPa): 1242.5 ± 2.8 m/s
- speed of sound (323.15 K, 2500 kPa): 1257.1 ± 2.8 m/s
- speed of sound (323.15 K, 5000 kPa): 1271.9 ± 2.9 m/s
- speed of sound (323.15 K, 10000 kPa): 1300.3 ± 2.9 m/s
- speed of sound (323.15 K, 15000 kPa): 1327.5 ± 3 m/s
- speed of sound (323.15 K, 20000 kPa): 1353.6 ± 3 m/s
- speed of sound (323.15 K, 30000 kPa): 1402.7 ± 3.1 m/s
- speed of sound (323.15 K, 40000 kPa): 1448.4 ± 3.2 m/s
- speed of sound (323.15 K, 60000 kPa): 1531.8 ± 3.3 m/s
- speed of sound (323.15 K, 80000 kPa): 1606.8 ± 3.5 m/s
- speed of sound (323.15 K, 100000 kPa): 1675.2 ± 3.6 m/s
- speed of sound (333.15 K, 100 kPa): 1207.6 ± 2.8 m/s
- speed of sound (333.15 K, 2500 kPa): 1222.7 ± 2.8 m/s
- speed of sound (333.15 K, 5000 kPa): 1238 ± 2.8 m/s
- speed of sound (333.15 K, 10000 kPa): 1267.5 ± 2.9 m/s
- speed of sound (333.15 K, 15000 kPa): 1295.6 ± 2.9 m/s
- speed of sound (333.15 K, 20000 kPa): 1322.4 ± 2.9 m/s
- speed of sound (333.15 K, 30000 kPa): 1372.9 ± 3 m/s
- speed of sound (333.15 K, 40000 kPa): 1419.8 ± 3.1 m/s
- speed of sound (333.15 K, 60000 kPa): 1505.1 ± 3.3 m/s
- speed of sound (333.15 K, 80000 kPa): 1581.5 ± 3.4 m/s
- speed of sound (333.15 K, 100000 kPa): 1651.1 ± 3.5 m/s
- speed of sound (343.15 K, 100 kPa): 1173.2 ± 2.7 m/s
- speed of sound (343.15 K, 2500 kPa): 1188.9 ± 2.7 m/s
- speed of sound (343.15 K, 5000 kPa): 1204.9 ± 2.7 m/s
- speed of sound (343.15 K, 10000 kPa): 1235.4 ± 2.8 m/s
- speed of sound (343.15 K, 15000 kPa): 1264.4 ± 2.8 m/s
- speed of sound (343.15 K, 20000 kPa): 1292.1 ± 2.9 m/s
- speed of sound (343.15 K, 30000 kPa): 1343.9 ± 3 m/s
- speed of sound (343.15 K, 40000 kPa): 1392 ± 3.1 m/s
- speed of sound (343.15 K, 60000 kPa): 1479.1 ± 3.2 m/s
- speed of sound (343.15 K, 80000 kPa): 1556.9 ± 3.4 m/s
- speed of sound (343.15 K, 100000 kPa): 1627.7 ± 3.5 m/s
- speed of sound (353.15 K, 100 kPa): 1139.5 ± 2.6 m/s
- speed of sound (353.15 K, 2500 kPa): 1155.8 ± 2.7 m/s
- speed of sound (353.15 K, 5000 kPa): 1172.3 ± 2.7 m/s
- speed of sound (353.15 K, 10000 kPa): 1204 ± 2.7 m/s
- speed of sound (353.15 K, 15000 kPa): 1233.9 ± 2.8 m/s
- speed of sound (353.15 K, 20000 kPa): 1262.4 ± 2.8 m/s
- speed of sound (353.15 K, 30000 kPa): 1315.7 ± 2.9 m/s
- speed of sound (353.15 K, 40000 kPa): 1364.9 ± 3 m/s
- speed of sound (353.15 K, 60000 kPa): 1453.9 ± 3.2 m/s
- speed of sound (353.15 K, 80000 kPa): 1533.1 ± 3.3 m/s
- speed of sound (353.15 K, 100000 kPa): 1605 ± 3.5 m/s
- speed of sound (363.15 K, 100 kPa): 1106.4 ± 2.6 m/s
- speed of sound (363.15 K, 2500 kPa): 1123.3 ± 2.6 m/s
- speed of sound (363.15 K, 5000 kPa): 1140.5 ± 2.6 m/s
- speed of sound (363.15 K, 10000 kPa): 1173.2 ± 2.7 m/s
- speed of sound (363.15 K, 15000 kPa): 1204.1 ± 2.7 m/s
- speed of sound (363.15 K, 20000 kPa): 1233.5 ± 2.8 m/s
- speed of sound (363.15 K, 30000 kPa): 1288.2 ± 2.9 m/s
- speed of sound (363.15 K, 40000 kPa): 1338.6 ± 3 m/s
- speed of sound (363.15 K, 60000 kPa): 1429.4 ± 3.1 m/s
- speed of sound (363.15 K, 80000 kPa): 1510 ± 3.3 m/s
- speed of sound (363.15 K, 100000 kPa): 1583 ± 3.4 m/s
- speed of sound (373.15 K, 100 kPa): 1073.8 ± 2.5 m/s
- speed of sound (373.15 K, 2500 kPa): 1091.4 ± 2.6 m/s
- speed of sound (373.15 K, 5000 kPa): 1109.2 ± 2.6 m/s
- speed of sound (373.15 K, 10000 kPa): 1143.1 ± 2.6 m/s
- speed of sound (373.15 K, 15000 kPa): 1175 ± 2.7 m/s
- speed of sound (373.15 K, 20000 kPa): 1205.2 ± 2.7 m/s
- speed of sound (373.15 K, 30000 kPa): 1261.4 ± 2.8 m/s
- speed of sound (373.15 K, 40000 kPa): 1313 ± 2.9 m/s
- speed of sound (373.15 K, 60000 kPa): 1405.5 ± 3.1 m/s
- speed of sound (373.15 K, 80000 kPa): 1487.6 ± 3.2 m/s
- speed of sound (373.15 K, 100000 kPa): 1561.6 ± 3.4 m/s
- speed of sound (383.15 K, 100 kPa): 1041.7 ± 2.5 m/s
- speed of sound (383.15 K, 2500 kPa): 1060.1 ± 2.5 m/s
- speed of sound (383.15 K, 5000 kPa): 1078.6 ± 2.5 m/s
- speed of sound (383.15 K, 10000 kPa): 1113.6 ± 2.6 m/s
- speed of sound (383.15 K, 15000 kPa): 1146.5 ± 2.6 m/s
- speed of sound (383.15 K, 20000 kPa): 1177.7 ± 2.7 m/s
- speed of sound (383.15 K, 30000 kPa): 1235.3 ± 2.8 m/s
- speed of sound (383.15 K, 40000 kPa): 1288.1 ± 2.9 m/s
- speed of sound (383.15 K, 60000 kPa): 1382.4 ± 3 m/s
- speed of sound (383.15 K, 80000 kPa): 1465.8 ± 3.2 m/s
- speed of sound (383.15 K, 100000 kPa): 1540.9 ± 3.3 m/s
- speed of sound (393.15 K, 100 kPa): 1010.2 ± 2.4 m/s
- speed of sound (393.15 K, 2500 kPa): 1029.3 ± 2.5 m/s
- speed of sound (393.15 K, 5000 kPa): 1048.5 ± 2.5 m/s
- speed of sound (393.15 K, 10000 kPa): 1084.8 ± 2.5 m/s
- speed of sound (393.15 K, 15000 kPa): 1118.8 ± 2.6 m/s
- speed of sound (393.15 K, 20000 kPa): 1150.8 ± 2.6 m/s
- speed of sound (393.15 K, 30000 kPa): 1209.9 ± 2.7 m/s
- speed of sound (393.15 K, 40000 kPa): 1263.8 ± 2.8 m/s
- speed of sound (393.15 K, 60000 kPa): 1360 ± 3 m/s
- speed of sound (393.15 K, 80000 kPa): 1444.6 ± 3.2 m/s
- speed of sound (393.15 K, 100000 kPa): 1520.8 ± 3.3 m/s
- speed of sound (403.15 K, 100 kPa): 979.2 ± 2.4 m/s
- speed of sound (403.15 K, 2500 kPa): 999.1 ± 2.4 m/s
- speed of sound (403.15 K, 5000 kPa): 1019 ± 2.4 m/s
- speed of sound (403.15 K, 10000 kPa): 1056.6 ± 2.5 m/s
- speed of sound (403.15 K, 15000 kPa): 1091.6 ± 2.6 m/s
- speed of sound (403.15 K, 20000 kPa): 1124.6 ± 2.6 m/s
- speed of sound (403.15 K, 30000 kPa): 1185.2 ± 2.7 m/s
- speed of sound (403.15 K, 40000 kPa): 1240.3 ± 2.8 m/s
- speed of sound (403.15 K, 60000 kPa): 1338.2 ± 3 m/s
- speed of sound (403.15 K, 80000 kPa): 1424.1 ± 3.1 m/s
- speed of sound (403.15 K, 100000 kPa): 1501.3 ± 3.3 m/s
- speed of sound (413.15 K, 100 kPa): 948.7 ± 2.4 m/s
- speed of sound (413.15 K, 2500 kPa): 969.4 ± 2.4 m/s
- speed of sound (413.15 K, 5000 kPa): 990.1 ± 2.4 m/s
- speed of sound (413.15 K, 10000 kPa): 1029 ± 2.5 m/s
- speed of sound (413.15 K, 15000 kPa): 1065.2 ± 2.5 m/s
- speed of sound (413.15 K, 20000 kPa): 1099 ± 2.6 m/s
- speed of sound (413.15 K, 30000 kPa): 1161.2 ± 2.7 m/s
- speed of sound (413.15 K, 40000 kPa): 1217.4 ± 2.7 m/s
- speed of sound (413.15 K, 60000 kPa): 1317 ± 2.9 m/s
- speed of sound (413.15 K, 80000 kPa): 1404.2 ± 3.1 m/s
- speed of sound (413.15 K, 100000 kPa): 1482.4 ± 3.2 m/s
- speed of sound (423.15 K, 100 kPa): 918.8 ± 2.3 m/s
- speed of sound (423.15 K, 2500 kPa): 940.3 ± 2.4 m/s
- speed of sound (423.15 K, 5000 kPa): 961.8 ± 2.4 m/s
- speed of sound (423.15 K, 10000 kPa): 1002 ± 2.4 m/s
- speed of sound (423.15 K, 15000 kPa): 1039.3 ± 2.5 m/s
- speed of sound (423.15 K, 20000 kPa): 1074.1 ± 2.5 m/s
- speed of sound (423.15 K, 30000 kPa): 1137.8 ± 2.6 m/s
- speed of sound (423.15 K, 40000 kPa): 1195.2 ± 2.7 m/s
- speed of sound (423.15 K, 60000 kPa): 1296.5 ± 2.9 m/s
- speed of sound (423.15 K, 80000 kPa): 1384.9 ± 3 m/s
- speed of sound (423.15 K, 100000 kPa): 1464 ± 3.2 m/s
- speed of sound (433.15 K, 100 kPa): 889.2 ± 2.3 m/s
- speed of sound (433.15 K, 2500 kPa): 911.7 ± 2.3 m/s
- speed of sound (433.15 K, 5000 kPa): 934 ± 2.3 m/s
- speed of sound (433.15 K, 10000 kPa): 975.7 ± 2.4 m/s
- speed of sound (433.15 K, 15000 kPa): 1014.1 ± 2.4 m/s
- speed of sound (433.15 K, 20000 kPa): 1049.8 ± 2.5 m/s
- speed of sound (433.15 K, 30000 kPa): 1115 ± 2.6 m/s
- speed of sound (433.15 K, 40000 kPa): 1173.6 ± 2.7 m/s
- speed of sound (433.15 K, 60000 kPa): 1276.6 ± 2.8 m/s
- speed of sound (433.15 K, 80000 kPa): 1366.2 ± 3 m/s
- speed of sound (433.15 K, 100000 kPa): 1446.2 ± 3.2 m/s
